≈ marks a conversion by molar mass, not a printed value. Like-named read-outs stand apart in the source and are kept apart here.
Tests used:
[1] = MTT assay; format: cell-based; conditions: human, HEK-293 cells (normal reference cell line), HEK-293 (normal cells), read-out: IC50, cytotoxicity
Experimental: (§1) Therefore, the whole set of compounds were tested by using MTT assay in order to check their overall cytotoxic effect. The growth of cells was monitored after 24 and 48 h of incubation with the increased concentrations (1–100 µg/ml) of the thiosemicarbazide derivatives. […] This confirms that the compounds tested combine different mechanisms of anticancer activity, and DNA topoisomerase II inhibition is only one of them.
(§2) Cytotoxicity of the synthesised compounds were examined against a panel of the cancer cell lines, MCF-7 (estrogen-dependent human breast cancer cells), MDA-MB-231 (oestrogen-independent human breast cancer cells), SCC- 25 (squamous cell carcinoma of the tongue), FaDu (squamous cell carcinoma of the pharynx), A- 549 (human lung carcinoma), AGS (human gastric adenocarcinoma), LS-180, HT-29 (colon cancer cell lines), T98G (glioblastoma cells), A375 (melanoma cells). Human embryonic kidney (HEK-293) cells and human normal skin fibroblasts (CRL-2072) were used as reference cell lines. The investigated cell lines were obtained from American Type Culture Collection (ATCC; Manassas, VA, USA). A375, MCF-7, MDA-MB-231, T98G cells were cultured in Dulbecco’s Modified Eagle’s Medium (DMEM) (Sigma Aldrich, St. Louis, MO, USA) supplemented with 10% heat inactivated foetal bovine serum (FBS), penicillin (100 U/mL), and streptomycin (100 μg/mL). SCC-25 cells were cultured in 1:1 mixture of Dulbecco’s modified Eagle’s medium and Ham’s F12 Medium (Sigma Aldrich, St. Louis, MO, USA) supplemented with 400 ng/ml hydrocortisone, 10% FBS, penicillin (100 U/mL), and streptomycin (100 μg/mL). A549 and AGS cells were maintained in F-12K Medium (Sigma Aldrich, St. Louis, MO, USA). LS-180 and FaDu cells were cultured in Eagle’s Minimum Essential Medium. HT-29 cells were maintained in McCoy’s 5 A Medium (Sigma Aldrich, St. Louis, MO, USA) supplemented with 10%FBS, penicillin (100 U/mL), and streptomycin (100 μg/mL). All the cells were maintained at 37 °C in a humidified atmosphere of 5% CO2.
(§3) The synthesised compounds were dissolved in DMSO in order to obtain stock solutions. At the day of the experiment, the suspension of cells (1 × 10^5 cells/mL) in the respective medium was applied to a 96-well plate at 100 μL per well. […] The control cells were cultured only with a medium containing 2% FBS. Cytotoxicity of DMSO was also checked at concentrations present in respective dilutions of stock solution. After 24 h (or 48 h) of incubation, 15 μL of MTT working solution (5 mg/mL in PBS) was added to each well. The plate was incubated for 3 h. Subsequently, 100 μL of 10% SDS solution was added to each well. Cells were incubated overnight at 37 °C to dissolve the precipitated formazan crystals. The concentration of the dissolved formazan was evaluated by measuring the absorbance at λ = 570 nm, using a microplate reader (Epoch, BioTek Instruments, Inc., Winooski, VT, USA). At least two independent experiments were performed in triplicates. The results of the MTT assay were expressed as mean ± SD. […] IC50 values of the investigated derivatives and standards were calculated using the IC50 calculator.[23]

[2] = system: A375 (melanoma cells); test: MTT assay; format: cell-based; conditions: Homo sapiens, read-out: IC50, cytotoxicity
Experimental: as §1, §2, §3

[3] = system: A549 (human lung carcinoma); test: MTT assay; format: cell-based; conditions: read-out: IC50, cytotoxicity
Experimental: as §1, §2, §3

[4] = system: AGS (human gastric adenocarcinoma); test: MTT assay; format: cell-based; conditions: read-out: IC50, cytotoxicity
Experimental: as §1, §2, §3

[5] = system: FaDu (squamous cell carcinoma of the pharynx); test: MTT assay; format: cell-based; conditions: Homo sapiens, read-out: IC50, cytotoxicity
Experimental: as §1, §2, §3

[6] = system: HT-29 (colon cancer cell line); test: MTT assay; format: cell-based; conditions: Homo sapiens, HT-29, MTT, read-out: IC50, cytotoxicity
Experimental: as §1, §2, §3

[7] = system: LS180 (colon cancer cell line); test: MTT assay; format: cell-based; conditions: Homo sapiens, read-out: IC50, cytotoxicity
Experimental: as §1, §2, §3

[8] = system: MCF-7 (estrogen-dependent human breast cancer cells); test: MTT assay; format: cell-based; conditions: MCF7, MCF-7, MTT, read-out: IC50, cytotoxicity
Experimental: as §1, §2, §3

[9] = system: MDA-MB-231 (estrogen-independent human breast cancer cells); test: MTT assay; format: cell-based; conditions: MDA-MB-231, MTT, read-out: IC50, cytotoxicity
Experimental: as §1, §2, §3

[10] = system: SCC-25 (squamous cell carcinoma of the tongue); test: MTT assay; format: cell-based; conditions: Homo sapiens, SCC-25, MTT, read-out: IC50, cytotoxicity
Experimental: as §1, §2, §3

[11] = system: T98G (glioblastoma cells); test: MTT assay; format: cell-based; conditions: Homo sapiens, read-out: IC50, cytotoxicity
Experimental: as §1, §2, §3

[12] = Solubility in culture media and buffers; format: physicochemical

Row | SMILES | IC50 at 24 h [1] [µg/mL] | IC50 at 48 h [1] [µg/mL] | IC50 ([2]; A-375, 24h) [µg/mL] | IC50 ([2]; A-375, 48 h) [µg/mL] | IC50 ([3]; 24h) [µg/mL] | IC50 ([3]; 48h) [µg/mL] | IC50 ([4]; 24h) [µg/mL] | IC50 ([4]; 48 h) [µg/mL] | IC50 ([5]; 24h) [µg/mL] | IC50 ([5]; 48 h) [µg/mL] | IC50 ([6]; 24h) [µg/mL] | IC50 ([6]; 48 h) [µg/mL] | IC50 ([7]; 24h) [µg/mL] | IC50 ([7]; 48 h) [µg/mL] | IC50 ([8]; 24h) [µg/mL] | IC50 ([8]; 48h) [µg/mL] | IC50 ([9]; 24h) [µg/mL] | IC50 ([9]; 48h) [µg/mL] | IC50 ([10]; 24h) [µg/mL] | IC50 ([10]; 48 h) [µg/mL] | further results
1 | O=C(NC(=S)NNC(=O)c1ccccc1[N+](=O)[O-])c1ccc([N+](=O)[O-])cc1 [Compound 6, 1-(2-Nitrobenzoyl)-4-(4-nitrobenzoyl)thiosemicarbazide] | > 100 | 60.1 (≈ 154 µM) | > 100 | 7.98 (≈ 20.5 µM) | 20.8 (≈ 53.3 µM) | 23.4 (≈ 60.2 µM) | 23.5 (≈ 60.3 µM) | 29.8 (≈ 76.5 µM) | 12.9 (≈ 33.1 µM) | 14.8 (≈ 37.9 µM) | 22.8 (≈ 58.5 µM) | 6.78 (≈ 17.4 µM) | > 100 | 10.4 (≈ 26.7 µM) | > 100 | 15.9 (≈ 40.9 µM) | > 100 | 16.8 (≈ 43.3 µM) | 26 (≈ 66.7 µM) | 9.78 (≈ 25.1 µM) | IC50 ([11]; 24h): 8.41 µg/mL (≈ 21.6 µM); IC50 ([11]; 48h): 9.78 µg/mL (≈ 25.1 µM)
2 | O=C(Cc1cccc2ccccc12)NNC(=S)NC(=O)c1ccccc1Cl [Compound 8, 4-(2-Chlorobenzoyl)-1-[(naphth-1-yl)acetyl]thiosemicarbazide] | > 100 | 23.4 (≈ 58.9 µM) | > 100 | 9.45 (≈ 23.8 µM) | > 100 | > 100 | > 100 | > 100 | > 100 | 12.8 (≈ 32.2 µM) | > 100 | 14.8 (≈ 37.1 µM) | > 100 | 41.1 (≈ 103 µM) | > 100 | 12.7 (≈ 32 µM) | > 100 | 17.2 (≈ 43.3 µM) | > 100 | 29.5 (≈ 74.1 µM) | IC50 ([11]; 24h): 97.2 µg/mL (≈ 244 µM); IC50 ([11]; 48h): 11.8 µg/mL (≈ 29.7 µM); melting point: 174 to 176 °C
3 | O=C(NNC(=S)Nc1c(F)cccc1F)c1ccccc1[N+](=O)[O-] [Compound 4, 4-(2,6-Difluorophenyl)-1-(2-nitrobenzoyl)thiosemicarbazide] | > 100 | > 100 | > 100 | 14.8 (≈ 42 µM) | > 100 | > 100 | > 100 | 63.9 (≈ 181 µM) | > 100 | 39.2 (≈ 111 µM) | 25 (≈ 71 µM) | > 100 | > 100 | 55.6 (≈ 158 µM) | > 100 | 19.4 (≈ 55.1 µM) | > 100 | 32.5 (≈ 92.2 µM) | > 100 | 40.9 (≈ 116 µM) | IC50 ([11]; 24h): 55.5 µg/mL (≈ 157 µM); IC50 ([11]; 48h): 7.26 µg/mL (≈ 20.6 µM); melting point: 278 to 280 °C
4 | Cc1cccc(C(=O)NC(=S)NNC(=O)c2ccc(O)c([N+](=O)[O-])c2)c1 [Compound 12, 4-(3-Methylbenzoyl)-1-(4-hydroxy-3-nitrobenzoyl)thiosemicarbazide] | – | – | – | – | – | – | – | – | – | – | – | – | – | – | – | – | – | – | – | – | solubility in culture media and buffers [12]: low solubility; melting point: 190 to 192 °C
5 | O=C(Cc1cccc2ccccc12)NNC(=S)NC(=O)c1ccccc1 [Compound 9, 4-Benzoyl-1-[(naphth-1-yl)acetyl]thiosemicarbazide] | 67 (≈ 184 µM) | 23 (≈ 63.4 µM) | > 100 | 8.14 (≈ 22.4 µM) | > 100 | > 100 | > 100 | 19.7 (≈ 54.1 µM) | 28.2 (≈ 77.5 µM) | 19.5 (≈ 53.7 µM) | > 100 | 5.23 (≈ 14.4 µM) | > 100 | 19.8 (≈ 54.5 µM) | > 100 | 16.4 (≈ 45 µM) | > 100 | > 100 | 32.2 (≈ 88.6 µM) | 34.5 (≈ 94.9 µM) | IC50 ([11]; 24h): > 100 µg/mL; IC50 ([11]; 48h): 17.4 µg/mL (≈ 47.8 µM); melting point: 164 to 166 °C
6 | Cc1cccc(C(=O)NC(=S)NNC(=O)c2ccccc2[N+](=O)[O-])c1 [Compound 5, 4-(3-Methylobenzoyl)-1-(2-nitrobenzoyl)thiosemicarbazide] | 78.1 (≈ 218 µM) | 24.6 (≈ 68.6 µM) | 89.3 (≈ 249 µM) | 38.5 (≈ 107 µM) | > 100 | > 100 | > 100 | 63.9 (≈ 178 µM) | > 100 | 31.7 (≈ 88.4 µM) | 45.2 (≈ 126 µM) | 12.3 (≈ 34.3 µM) | > 100 | 19.8 (≈ 55.4 µM) | > 100 | 28.1 (≈ 78.5 µM) | > 100 | 56.3 (≈ 157 µM) | > 100 | 17.3 (≈ 48.3 µM) | IC50 ([11]; 24h): > 100 µg/mL; IC50 ([11]; 48h): 30.1 µg/mL (≈ 83.9 µM); melting point: 194 to 195 °C
7 | O=C(Cc1cccc2ccccc12)NNC(=S)Nc1c(F)cccc1F [Compound 10, 4-(2,6-Difluorophenyl)-1-[(naphth-1-yl)acetyl]thiosemicarbazide] | 63.7 (≈ 172 µM) | 19.5 (≈ 52.5 µM) | 47.9 (≈ 129 µM) | 30.1 (≈ 81.2 µM) | 92.6 (≈ 249 µM) | 32.8 (≈ 88.4 µM) | 29.5 (≈ 79.3 µM) | 21.1 (≈ 56.7 µM) | 20.1 (≈ 54.2 µM) | 29.7 (≈ 80.1 µM) | 32.9 (≈ 88.7 µM) | 32.2 (≈ 86.6 µM) | 72.4 (≈ 195 µM) | 12.6 (≈ 33.8 µM) | 64.1 (≈ 173 µM) | 20.6 (≈ 55.6 µM) | 83.4 (≈ 225 µM) | 68.1 (≈ 183 µM) | 52.4 (≈ 141 µM) | 23.9 (≈ 64.2 µM) | IC50 ([11]; 24h): 47.2 µg/mL (≈ 127 µM); IC50 ([11]; 48h): 30.6 µg/mL (≈ 82.5 µM); melting point: 186 to 188 °C
8 | O=C(NNC(=S)Nc1ccc(F)cc1F)c1ccccc1[N+](=O)[O-] [Compound 11, 4-(2,4-Difluorophenyl)-1-(2-nitrobenzoyl)thiosemicarbazide] | – | – | – | – | – | – | – | – | – | – | – | – | – | – | – | – | – | – | – | – | solubility in culture media and buffers [12]: low solubility; melting point: 182 to 184 °C
9 | O=C(NNC(=S)NC(=O)c1ccccc1Cl)c1ccc(O)c([N+](=O)[O-])c1 [Compound 7, 4-(2-Chlorobenzoyl)-1-(4-hydroxy-3-nitrobenzoyl)thiosemicarbazide] | 67.2 (≈ 170 µM) | 32.7 (≈ 82.8 µM) | > 100 | 13.9 (≈ 35.2 µM) | > 100 | > 100 | > 100 | 18.8 (≈ 47.5 µM) | 33.5 (≈ 84.9 µM) | 22.5 (≈ 56.9 µM) | 47.4 (≈ 120 µM) | 7.18 (≈ 18.2 µM) | > 100 | 24.7 (≈ 62.5 µM) | > 100 | 24.8 (≈ 62.9 µM) | > 100 | 69.4 (≈ 176 µM) | 42.4 (≈ 107 µM) | 24.3 (≈ 61.6 µM) | IC50 ([11]; 24h): 11.4 µg/mL (≈ 29 µM); IC50 ([11]; 48h): 10.7 µg/mL (≈ 27 µM)
